# Assay results from paper PMC5459475 (2017).
# Legend:
# [1] = tested on: 6-FAM-CUG23 (RNA, repeat) CUGCUGCUGCUGCUGCUGCUGCUGCUGCUGCUGCUGCUGCUGCUGCUGCUGCUGCUGCUGCUGCUGCUG; experiment: fluorescence polarization; conditions: 250 mM NaCl, 50 μM ZnCl2, 50 mM Tris-HCl pH 7.0, 10% glycerol, 1 mM DTT, on ice, RNA 6 nM
# [2] = tested on: (CUG)12 RNA (CUGexp) (RNA, repeat) CUGCUGCUGCUGCUGCUGCUGCUGCUGCUGCUGCUG; experiment: direct fluorescence titration; conditions: log K; fitted with HypSpec; buffer of the direct titration not stated separately
compound,measurement,setting,value
CC1Cc2c(N)nc(NCc3ccc(CNc4nc(N)c5c(n4)NC(=O)C(C)C5)cc3)nc2NC1=O (stereo not shown),binding,[1]; saturated at 250 μM,yes
CN1C(=Cc2cc[n+](C)c3ccccc23)Sc2ccccc21,binding constant,[2],6.5(1) logarithmic units
N=C(N)c1ccc(OCCCCCOc2ccc(C(=N)N)cc2)cc1,binding,[1]; 100 μM pentamidine positive control,yes
CC(=O)Nc1cccc(NC(=O)c2csc(NC(=O)c3ccc(Cl)cc3)n2)c1,binding,[1]; pentamidine-like polarization at 37.5 μM,yes
